Our source for the IC50 values is ChEMBL document CHEMBL5108025, “New thiazole-based derivatives as EGFR/HER2 and DHFR inhibitors: Synthesis, molecular modeling simulations and anticancer activity” (Eur J Med Chem, 2022).

Usually IC50 stands for the concentration that inhibits the measured activity by half. The low end stands for greater potency, the high end for weaker potency.

One test has as its system HeLa. Kind of test: Antiproliferative activity against human HeLa cells after 72 hrs by MTT assay. Type of test: functional, cell-based. (In general: Tetrazolium dyes change colour on reduction, which living cells bring about.)
The next test relates to HCT-116. Nature of the test: cells. The following applies: Homo sapiens, HCT-116, 72 h.
For a further test, the system named is MCF7. Nature of the test: cells. To be noted: Homo sapiens, MCF7, 72 h.
The subject of a further test is PC-3. Nature of the test: Antiproliferative activity against human PC-3 cells after 72 hrs by MTT assay. Type of test: functional, cell-based. The following applies: PC-3, 72 h.
A further test relates to HepG2. Nature of the test: cells. The following applies: Homo sapiens, HepG2, 72 h.

Description for HCT-116: Antiproliferative activity against human HCT-116 cells after 72 hrs by MTT assay

On to `COc1ccc(NC(=S)Nc2nc(C(=O)NCc3ccccc3)cs2)cc1`, for which the IC50 came out at 22.9 µM in the test with HeLa; 18.2 µM in the test on HCT-116; 24.6 µM with MCF7; 39.3 µM in the test with PC-3; 28.1 µM with HepG2.

Regarding `CNC(=O)c1cc(Oc2ccc(NC(=O)Nc3ccc(Cl)c(C(F)(F)F)c3)cc2)ccn1` [SORAFENIB], the midpoint of inhibition with PC-3, the IC50, lay at 11.5 µM.

Take `COc1ccc(-c2cnc3scc(C(=O)NNC(C)=O)n23)cc1`: the IC50 was determined as 17.9 µM in the test on HeLa; 17 µM in the test with HCT-116; 8.36 µM in the test with MCF7; 28.3 µM with PC-3; 11.8 µM in the test on HepG2.

With `CC(=O)NNC(=O)c1csc2nc(CN3CCOCC3)c(-c3ccc(Br)cc3)n12`, the IC50 stood at 13.6 µM with HeLa; 22 µM in the test on HCT-116; 19.1 µM in the test with MCF7; 29.3 µM in the test with PC-3; 14.1 µM with HepG2.

Take `CCOC(=O)c1csc2nc(CN3CCN(C)CC3)c(-c3ccc(OC)cc3)n12`: the IC50 in the test on HeLa came out at 35.1 µM; in the test with HCT-116 it was 44.6 µM; in the test with MCF7 it was 32.8 µM; with PC-3 it was 69.4 µM; in the test with HepG2, 68.4 µM.

Turning to `COc1ccc(NC(=S)Nc2nc(C(=O)NCCc3ccccc3)cs2)cc1`, the IC50 in the test with HeLa came out at 14.8 µM; in the test on HCT-116, 8.13 µM; in the test on MCF7, 10.6 µM; with PC-3 it was 25.1 µM; with HepG2, 19.5 µM.

For the molecule `O=C(NCCCc1ccccc1)c1csc(NC(=S)Nc2ccc(Cl)cc2)n1`, the concentration for half-maximal inhibition (IC50) was 32.2 µM in the test with HeLa; 36.6 µM with HCT-116; 45.1 µM with MCF7; 42.4 µM with PC-3; 53.1 µM with HepG2.

`CC(=O)NNC(=O)c1csc2ncc(-c3ccc(C)cc3)n12`: the IC50 came to 74.2 µM with HeLa; 71.8 µM in the test with HCT-116; 57.3 µM in the test with MCF7; 92.7 µM with PC-3; 63.6 µM with HepG2.

With `CCOC(=O)c1csc2nc(CN3CCN(C)CC3)c(-c3ccc(Br)cc3)n12`, the half-maximal inhibitory concentration (IC50) with HeLa stood at 55.4 µM; in the test on HCT-116, 93.6 µM; in the test with MCF7, 68.5 µM; with PC-3, 85 µM; in the test with HepG2, 82.7 µM.

With `CCOC(=O)c1csc2nc(CN3CCN(Cc4ccccc4)CC3)c(-c3ccc(OC)cc3)n12`, the IC50 in the test with HeLa was determined as 9.94 µM; with HCT-116, 19.6 µM; in the test with MCF7 it was 17.1 µM; in the test with PC-3, 29.4 µM; in the test on HepG2, 26.4 µM.

In the case of `CCOC(=O)c1csc2nc(CN3CCOCC3)c(-c3ccc(Br)cc3)n12`, the IC50 in the test on HeLa stood at 20.8 µM; in the test with HCT-116 it was 28.5 µM; in the test with MCF7, 24.6 µM; in the test with PC-3 it was 35.2 µM; in the test with HepG2 it was 32.5 µM.

Regarding `CCCC(=O)NNC(=O)c1csc2ncc(-c3ccc(Br)cc3)n12`, the IC50 in the test on HeLa was 31.9 µM; with HCT-116, 50.3 µM; in the test on MCF7 it was 27.5 µM; in the test on PC-3, 58.5 µM; in the test with HepG2, 33.6 µM.

Take `CCCC(=O)NNC(=O)c1csc2nc(CN3CCOCC3)c(-c3ccc(Br)cc3)n12`: the IC50 with HeLa was 29.2 µM; with HCT-116 it was 46.8 µM; in the test with MCF7 it was 35.9 µM; in the test on PC-3, 52.9 µM; with HepG2 it was 38.4 µM.

In the case of `CN(Cc1cnc2nc(N)nc(N)c2n1)c1ccc(C(=O)N[C@@H](CCC(=O)O)C(=O)O)cc1` [METHOTREXATE], the IC50 with HeLa is 13.7 µM; in the test with HCT-116 it was 9.25 µM; in the test on MCF7, 25.3 µM; in the test with PC-3 it was 28.8 µM; in the test with HepG2, 21.9 µM.

In the case of `O=C(O)c1csc2nc(CN3CCCCC3)c(-c3ccc(Br)cc3)n12`, the IC50 in the test on HeLa is 76.6 µM; in the test on HCT-116, more than 100 µM; in the test with MCF7, 87.5 µM; in the test with PC-3, more than 100 µM; with HepG2, more than 100 µM.

As for `CCC(=O)NNC(=O)c1csc2nc(CN3CCOCC3)c(-c3ccc(Br)cc3)n12`, the IC50 stood at 27 µM in the test on HeLa; 34.1 µM in the test with HCT-116; 25.4 µM in the test with MCF7; 42.7 µM with PC-3; 31.2 µM with HepG2.

In the case of `CCOC(=O)c1csc2nc(CN3CCOCC3)c(-c3ccc(OC)cc3)n12`, the IC50 came out at 16.4 µM in the test with HeLa; 25.8 µM in the test on HCT-116; 13.9 µM with MCF7; 22.6 µM in the test with PC-3; 19.8 µM with HepG2.

In the case of `CCOC(=O)c1csc2nc(CN3CCN(Cc4ccccc4)CC3)c(-c3ccc(Br)cc3)n12`, the IC50 in the test with HeLa came out at 29.5 µM; in the test on HCT-116, 37.2 µM; in the test on MCF7, 51.4 µM; in the test with PC-3, 56.4 µM; with HepG2, 47.3 µM.

For the molecule `CCC(=O)NNC(=O)c1csc2ncc(-c3ccc(OC)cc3)n12`, the IC50 with HeLa was found to be 56.2 µM; with HCT-116, 64.3 µM; with MCF7 it was 53.2 µM; in the test with PC-3, 79.8 µM; in the test with HepG2, 45.8 µM.

Take `CCOC(=O)c1csc2nc(CN3CCN(C)CC3)c(-c3ccc(C)cc3)n12`: the half-maximal inhibitory concentration (IC50) is 43.9 µM with HeLa; 61 µM in the test with HCT-116; 58.3 µM with MCF7; 65 µM in the test on PC-3; 53.6 µM with HepG2.

As for `CCCC(=O)NNC(=O)c1csc2ncc(-c3ccc(C)cc3)n12`, the IC50 in the test on HeLa turned out to be 45.6 µM; with HCT-116, 34.5 µM; in the test on MCF7, 41.7 µM; in the test on PC-3 it was 53.5 µM; in the test with HepG2 it was 26.8 µM.

Turning to `CCC(=O)NNC(=O)c1csc2nc(CN3CCOCC3)c(-c3ccc(OC)cc3)n12`, the IC50 in the test with HeLa worked out at 44.2 µM; in the test with HCT-116 it was 59.3 µM; with MCF7 it was 64.1 µM; with PC-3, 73.9 µM; in the test on HepG2 it was 55.9 µM.

With `COc1ccc(-c2c(CN3CCCCC3)nc3scc(C(=O)O)n23)cc1`, the IC50 worked out at 47.4 µM with HeLa; 84.6 µM in the test on HCT-116; 62.9 µM with MCF7; 73.1 µM in the test with PC-3; 75 µM with HepG2.

Take `CC(=O)NNC(=O)c1csc2nc(CN3CCOCC3)c(-c3ccc(C)cc3)n12`: the IC50 was determined as 35.3 µM with HeLa; 54.6 µM with HCT-116; 50.8 µM in the test with MCF7; 61.3 µM in the test on PC-3; 43 µM with HepG2.

On to `O=C(NCCc1ccccc1)c1csc(NC(=S)Nc2ccc(Cl)cc2)n1`, for which the IC50 in the test on HeLa was determined as 30.4 µM; with HCT-116, 29.7 µM; with MCF7, 17.2 µM; in the test with PC-3, 33.8 µM; in the test with HepG2, 11.8 µM.

`CCC(=O)NNC(=O)c1csc2nc(CN3CCOCC3)c(-c3ccc(C)cc3)n12`: the IC50 in the test on HeLa was found to be 48.4 µM; in the test with HCT-116, 64.5 µM; with MCF7 it was 58.2 µM; with PC-3, 79.1 µM; in the test on HepG2 it was 69.2 µM.

`COc1ccc(-c2c(CN3CCOCC3)nc3scc(C(=O)NNC(C)=O)n23)cc1`: the IC50 with HeLa was 18.9 µM; in the test with HCT-116 it was 29.9 µM; in the test on MCF7, 11.3 µM; with PC-3, 34.8 µM; with HepG2, 23.7 µM.

For the molecule `O=C(NCc1ccccc1)c1csc(NC(=S)Nc2ccc(Cl)cc2)n1`, the concentration for half-maximal inhibition (IC50) in the test on HeLa worked out at 76 µM; with HCT-116, 62.1 µM; with MCF7, 56.5 µM; in the test on PC-3, 51.3 µM; with HepG2, 40.3 µM.

Turning to `CCCC(=O)NNC(=O)c1csc2ncc(-c3ccc(OC)cc3)n12`, the IC50 with HeLa came to 43.3 µM; with HCT-116 it was 59.1 µM; in the test with MCF7, 32.8 µM; in the test on PC-3, 66.4 µM; in the test with HepG2, 38 µM.

In the case of `CCC(=O)NNC(=O)c1csc2ncc(-c3ccc(Br)cc3)n12`, the IC50 in the test on HeLa came to 23.1 µM; in the test with HCT-116 it was 25.3 µM; with MCF7, 15 µM; in the test on PC-3 it was 43.7 µM; in the test with HepG2 it was 19.2 µM.

Turning to `CCCC(=O)NNC(=O)c1csc2nc(CN3CCOCC3)c(-c3ccc(OC)cc3)n12`, the IC50 in the test on HeLa was determined as 53.7 µM; in the test on HCT-116, 68.7 µM; in the test with MCF7, 72.4 µM; with PC-3, 88.5 µM; in the test on HepG2, 81.2 µM.

In the case of `COc1ccc(NC(=S)Nc2nc(C(=O)NCCCc3ccccc3)cs2)cc1`, the IC50 in the test with HeLa is 57.5 µM; in the test on HCT-116, 44.8 µM; in the test on MCF7, 63.8 µM; in the test with PC-3, 74.5 µM; in the test on HepG2, 71.3 µM.

`CCCC(=O)NNC(=O)c1csc2nc(CN3CCOCC3)c(-c3ccc(C)cc3)n12`: the IC50 in the test with HeLa was 67.9 µM; in the test with HCT-116, 77.5 µM; in the test with MCF7, 89.3 µM; in the test with PC-3, more than 100 µM; in the test with HepG2, 92.4 µM.

For the molecule `CCOC(=O)c1csc2nc(CN3CCN(Cc4ccccc4)CC3)c(-c3ccc(C)cc3)n12`, the IC50 is 38.8 µM in the test with HeLa; 47.8 µM in the test on HCT-116; 29.1 µM with MCF7; more than 100 µM in the test with PC-3; 88.2 µM with HepG2.

As for `CCOC(=O)c1csc2nc(CN3CCOCC3)c(-c3ccc(C)cc3)n12`, the IC50 was found to be 24.8 µM in the test with HeLa; 32.6 µM in the test on HCT-116; 43.6 µM with MCF7; 47.1 µM in the test with PC-3; 39 µM with HepG2.
